{
  "source": "patent US10724100B2",
  "about": "“Systems and methods for treating patients having a genetic predisposition to develop prostate cancer” (Institute for Cancer Research, priority 2015, dated 2020)",
  "tested_on": "peripheral blood lymphocytes (PBLs) of prostate cancer patients and matched controls",
  "assay": "γH2AX foci immunofluorescence in PHA/IL-2-stimulated peripheral blood lymphocytes after DNA damaging agents",
  "assay_type": "cell-based, human",
  "settings": "PBLs from 9 patients and 10 age- and gender-matched controls; 10 μM aphidicolin or 25 μM etoposide; fixed 2 hours later; p=0.0337 (aphidicolin), p=0.007 (etoposide)",
  "protocol": "Peripheral blood lymphocytes (PBLs) were available from 9/12 of the exome sequenced patients and 10 age-matched and gender-matched individuals without a cancer diagnosis or a family history of cancer. […] For analysis of DDR, cells were cultured in RPMI-1640 containing 15% fetal bovine serum (HyClone Laboratories, Logan, Utah), 2 mM L-glutamine (Life Technologies, Grand Island, N.Y.), 50 μM 2-mercaptoethanol (Sigma-Aldrich, St. Louis, Mo.), 0.2 units human recombinant insulin (Sigma) per ml, 50 units penicillin and 50 mg streptomycin per ml (complete RPMI), and then stimulated with phytohemagglutinin (PHA)-M (Life Technologies, Grand Island, N.Y.) and recombinant human interleukin 2 (IL-2) (NCI Preclinical Repository) for 72 hours. […] For immunofluorescence, cells were allowed to attach to poly-d-lysine-coated 96-well plates, stained with anti-γH2AX antibody (#05-636, Millipore, Temecula, Calif.). Sixteen images per well were acquired at 20× (with each image acquired in 2 channels to detect γH2AX with TRITC and total DNA with DAPI) utilizing the ImageXpress micro automated microscope (Molecular Devices, Sunnyvale, Calif.) driven by MetaXpress software. […]",
  "data": [
    {"smiles": "C[C@@]1(CO)[C@H](O)CC[C@@]2(C)[C@H]1CC[C@H]1C[C@@H]3C[C@@]12CC[C@]3(O)CO", "note": "[aphidicolin]", "values": [
      {"measurement": "γH2AX induction (nuclear γH2AX foci per cell), cases versus controls", "value": "higher magnitude of induction seen in prostate cancer patients"}
    ]}
  ]
}
